# Read-outs that look alike come from different tables or passages of the source.
# Columns and labels:
# [1] = Dynamic vapor sorption (DVS); assay type: physicochemical; conditions: for hygroscopicity according to the European Pharmacopoeia (EP) classification: weight increase at 80% RH; for water content at the end of the DVS test: by weight
# Description: A gravimetric vapor sorption study was run using a standard procedure. Samples were run using a dynamic vapor sorption (DVS) analyzer. Sample sizes were approximately 10 mg. A moisture adsorption-desorption isotherm was performed as outlined below.
# [2] = Bulk and tapped density of salts; assay type: physicochemical; conditions: 10 gram sample
# [3] = Relative stability of solid forms (water activity, suspension equilibration, storage); assay type: physicochemical; conditions: for Stability at Room Temperature: crystalline forms of the free base
# Excerpt: Critical water activity is a measure of the relative thermodynamic stability of Form I in comparison to the trihydrate Form II. […] Suspension equilibration experiments in ethanol-water mixtures, each having a different water activity, affirmed this conclusion. Water activities included in the experiments were maintained at: about 0.35 (ethanol-water ratio of 95:5, PP502-P32), about 0.53 (ethanol-water ratio of 9:1, PP502-P33) and about 0.77 (ethanol-water ratio of 7:3, PP502-P34).
# Because the DVS results of Form II indicate reversible moisture sorption-desorption behavior (see above), tests were performed to confirm that storage of the dehydrated Form II sample (i.e., Form IV) at about 60% RH would again lead to the trihydrate form (Form II). […]
# [4] = Aqueous solubility after equilibrating at 25° C. for three days (HPLC); assay type: physicochemical; conditions: water, equilibrated at 25° C. for three days, HPLC of filtered solution
# Description: Finally, Form II was tested with respect to solubilities in various water-solvent mixtures and non-aqueous solvents. […] High-performance liquid chromatography (HPLC) was used to determine the concentration of Form II in the filtered solution at approximately 14 μg/mL, which translates into a critical water activity (aw) of about 0.59.
# [5] = Plasma exposure after single oral administration in fasted beagle dogs; assay type: in vivo; conditions: nine fasted beagle dogs, single oral administration of 6 mg/kg, oral capsule
# Description: The plasma exposure of Forms I and II of the free base of Formula (1) were compared in nine fasted beagle dogs after a single oral administration of 6 mg/kg of either form using batches with a similar particle size distribution. The experiment was performed in 5 weekly phases, with the Form II phase last. […] There was a good in vitro in vivo correlation for the dissolution rates of Form 1 and Form II, and the performance of each form of Formula (1) when delivered by oral capsule to dogs.
# [6] = Intrinsic dissolution rate (paddle over stationary disc); assay type: physicochemical
# Description: The intrinsic dissolution rate (IDR) was measured for Forms I and II of the free base of Formula (1). IDR was measured using a paddle over stationary disc equipped dissolution apparatus with concentration determined using liquid chromatographic analysis against a standard. […] Form I has an IDR of 6.8 mg/cm^2/min in simulated gastric fluid (SGF) (pH 1.2) and an IDR of 0.44 mg/cm^2/min in pH 2.5 HCl/NaCl buffer. Form II has an IDR of 5.4 mg/cm^2/min in SGF and an IDR of 0.35 mg/cm^2/min in pH 2.5 HCl/NaCl buffer.
# [7] = for Solubility (mg/mL) after 24 hours equilibration: pure water at 25° C., pH 3.6-4.1
# [8] = Aqueous solubility of salts after three hours equilibration without pH adjustment; assay type: physicochemical; conditions: water
# Description: Characterization of fumarate salt, maleate salt, phosphate salt and L-tartrate salt was conducted using ^1H NMR spectroscopy, TG-FTIR, DSC, dynamic vapor sorption, optical microscopy, high-performance liquid chromatography (HPLC) purity, laser diffraction, approximate bulk and tapped density, and aqueous solubility analytical techniques.
smiles,measurement,setting,value
"CC#CC(=O)N1CCC[C@H]1c1nc(-c2ccc(C(=O)Nc3ccccn3)cc2)c2c(N)nccn12 [amorphous Formula (1), (S)-4-(8-amino-3-(1-(but-2-ynoyl)pyrrolidin-2-yl)imidazo[1,5-α]pyrazin-1-yl)-N-(pyridin-2-yl)benzamide]",total mass gained up to 95% RH,[1]; DVS,approximately 13%
same,total weight gain observed between 0% RH and 80% RH,[1]; DVS,about 6%
same,hygroscopicity according to the European Pharmacopoeia (EP) classification,[1]; DVS,hygroscopic (hygroscopic: ≥2% and <15%)
"CC#CC(=O)N1CCC[C@H]1c1nc(-c2ccc(C(=O)Nc3ccccn3)cc2)c2c(N)nccn12.O=C(O)C(O)C(O)C(=O)O [L-Tartrate, (S)-4-(8-amino-3-(1-(but-2-ynoyl)pyrrolidin-2-yl)imidazo[1,5-α]pyrazin-1-yl)-N-(pyridin-2-yl)benzamide L-tartrate]",Bulk density,[2],0.29 g/mL
same,Tapped density,[2],0.50 g/mL
same,Behavior in DVS: Δm (20-80% RH),[1],~0.7% (20-80% RH)
same,maximum water content (saturation) at about 95% RH,[1]; DVS,approximately 5.4%
same,water content at 50% RH,[1]; DVS,about 4.8%
same,water content change between 20% and 80% RH,[1]; DVS,about 0.7%
"CC#CC(=O)N1CCC[C@H]1c1nc(-c2ccc(C(=O)Nc3ccccn3)cc2)c2c(N)nccn12 [Form VII, (S)-4-(8-amino-3-(1-(but-2-ynoyl)pyrrolidin-2-yl)imidazo[1,5-α]pyrazin-1-yl)-N-(pyridin-2-yl)benzamide]",Stability at Room Temperature,[3],metastable
"CC#CC(=O)N1CCC[C@H]1c1nc(-c2ccc(C(=O)Nc3ccccn3)cc2)c2c(N)nccn12.O=C(O)CC(O)(CC(=O)O)C(=O)O [citrate salt, (S)-4-(8-amino-3-(1-(but-2-ynoyl)pyrrolidin-2-yl)imidazo[1,5-α]pyrazin-1-yl)-N-(pyridin-2-yl)benzamide citrate]",form after suspension equilibration in water,[3]; water at 25° C. for 24 hours,conversion to Form III of the free base of Formula (1)
same,water content at the end of the DVS test,[1]; DVS,about 7.5%
"CC#CC(=O)N1CCC[C@H]1c1nc(-c2ccc(C(=O)Nc3ccccn3)cc2)c2c(N)nccn12 [Form VIII, (S)-4-(8-amino-3-(1-(but-2-ynoyl)pyrrolidin-2-yl)imidazo[1,5-α]pyrazin-1-yl)-N-(pyridin-2-yl)benzamide]",Stability at Room Temperature,[3],metastable
"CC#CC(=O)N1CCC[C@H]1c1nc(-c2ccc(C(=O)Nc3ccccn3)cc2)c2c(N)nccn12.O=C(O)c1cc(O)ccc1O [gentisate salt, (S)-4-(8-amino-3-(1-(but-2-ynoyl)pyrrolidin-2-yl)imidazo[1,5-α]pyrazin-1-yl)-N-(pyridin-2-yl)benzamide gentisate]",water content at the end of the DVS test,[1]; DVS,5.2%
"CC#CC(=O)N1CCC[C@H]1c1nc(-c2ccc(C(=O)Nc3ccccn3)cc2)c2c(N)nccn12 [Form II, (S)-4-(8-amino-3-(1-(but-2-ynoyl)pyrrolidin-2-yl)imidazo[1,5-α]pyrazin-1-yl)-N-(pyridin-2-yl)benzamide]",aqueous solubility,[4],approximately 14 μg/mL
same,Cmax (maximum concentration),[5],lower Cmax (maximum concentration) than Form I in all dogs
same,area under the plasma drug concentration-time curve (AUC),[5],lower AUC than Form I in all dogs
same,intrinsic dissolution rate (IDR),[6]; pH 2.5 HCl/NaCl buffer,0.35 mg/cm^2/min
same,intrinsic dissolution rate (IDR),[6]; simulated gastric fluid (SGF) (pH 1.2),5.4 mg/cm^2/min
same,critical water activity (aw),"[3]; Form I versus trihydrate Form II, room temperature, from aqueous solubilities",about 0.59
same,relative thermodynamic stability of Form I and Form II,"[3]; room temperature, depending on water activity",above this value Form II is more stable
same,maximum water content (saturation) at about 95% RH,[1]; DVS,about 10.4%
same,total weight gain observed between 0% RH and 80% RH,[1]; DVS,about 10%
same,hygroscopicity according to the European Pharmacopoeia (EP) classification,[1]; DVS,hygroscopic (hygroscopic: ≥2% and <15%)
"CC#CC(=O)N1CCC[C@H]1c1nc(-c2ccc(C(=O)Nc3ccccn3)cc2)c2c(N)nccn12 [Form VI, (S)-4-(8-amino-3-(1-(but-2-ynoyl)pyrrolidin-2-yl)imidazo[1,5-α]pyrazin-1-yl)-N-(pyridin-2-yl)benzamide]",Stability at Room Temperature,[3],metastable
"CC#CC(=O)N1CCC[C@H]1c1nc(-c2ccc(C(=O)Nc3ccccn3)cc2)c2c(N)nccn12 [Form IV, (S)-4-(8-amino-3-(1-(but-2-ynoyl)pyrrolidin-2-yl)imidazo[1,5-α]pyrazin-1-yl)-N-(pyridin-2-yl)benzamide]",Stability at Room Temperature,[3],metastable
same,form after storage at 60% RH for three days (PXRD),[3]; dehydrated Form II sample,does revert to Form II
"CC#CC(=O)N1CCC[C@H]1c1nc(-c2ccc(C(=O)Nc3ccccn3)cc2)c2c(N)nccn12.O=C(O)C(=O)O [oxalate salt, (S)-4-(8-amino-3-(1-(but-2-ynoyl)pyrrolidin-2-yl)imidazo[1,5-α]pyrazin-1-yl)-N-(pyridin-2-yl)benzamide oxalate]",maximum water content (saturation) at about 95% RH,[1]; DVS,about 6.5%
same,water content at 50% RH,[1]; DVS,about 5.5%
"CC#CC(=O)N1CCC[C@H]1c1nc(-c2ccc(C(=O)Nc3ccccn3)cc2)c2c(N)nccn12.O=P(O)(O)O [Phosphate, (S)-4-(8-amino-3-(1-(but-2-ynoyl)pyrrolidin-2-yl)imidazo[1,5-α]pyrazin-1-yl)-N-(pyridin-2-yl)benzamide phosphate]",Bulk density,[2],0.33 g/mL
same,Tapped density,[2],0.48 g/mL
same,Solubility (mg/mL) after 24 hours equilibration,[7],15.0 mg/mL
same,Solubility (3 hours),[8],9800 µg/mL
same,Behavior in DVS: Δm (20-80% RH),[1],~0.7% (20-80% RH)
same,maximum water content (saturation) at about 95% RH,[1]; DVS,approximately 6.6%
"CC#CC(=O)N1CCC[C@H]1c1nc(-c2ccc(C(=O)Nc3ccccn3)cc2)c2c(N)nccn12 [Form V, (S)-4-(8-amino-3-(1-(but-2-ynoyl)pyrrolidin-2-yl)imidazo[1,5-α]pyrazin-1-yl)-N-(pyridin-2-yl)benzamide]",Stability at Room Temperature,[3],metastable
"CC#CC(=O)N1CCC[C@H]1c1nc(-c2ccc(C(=O)Nc3ccccn3)cc2)c2c(N)nccn12 [Form III, (S)-4-(8-amino-3-(1-(but-2-ynoyl)pyrrolidin-2-yl)imidazo[1,5-α]pyrazin-1-yl)-N-(pyridin-2-yl)benzamide]",Stability at Room Temperature,[3],metastable
same,maximum water content (saturation) at about 95% RH,[1]; DVS,about 8.5%
same,total weight gain observed between 0% RH and 80% RH,[1]; DVS,about 8%
same,hygroscopicity according to the European Pharmacopoeia (EP) classification,[1]; DVS,hygroscopic (hygroscopic: ≥2% and <15%)
"CC#CC(=O)N1CCC[C@H]1c1nc(-c2ccc(C(=O)Nc3ccccn3)cc2)c2c(N)nccn12.O=C(O)/C=C\C(=O)O [Maleate, (S)-4-(8-amino-3-(1-(but-2-ynoyl)pyrrolidin-2-yl)imidazo[1,5-α]pyrazin-1-yl)-N-(pyridin-2-yl)benzamide maleate]",Bulk density,[2],0.35 g/mL
same,Tapped density,[2],0.45 g/mL
same,solubility,"[7]; 0.1 N HCl, Sigma #71763, pH after 24 hours 1.8",37000 µg/mL
same,solubility,"[7]; borate buffer (sample pH9), pH after 24 hours 4.7",1200 µg/mL
same,solubility,"[7]; buffer pH 5, pH after 24 hours 4.8",4300 µg/mL
same,solubility,"[7]; citrate buffer pH 3, pH after 24 hours 3.2",8000 µg/mL
same,solubility,"[7]; phosphate buffer pH 7, KH2PO4 (sample pH6.8), pH after 24 hours 4.8",1200 µg/mL
same,solubility,"[7]; phosphate buffer pH 7, KH2PO4 (sample pH7.4), pH after 24 hours 5.0",800 µg/mL
same,Solubility (mg/mL) after 24 hours equilibration,[7],2.3 mg/mL
same,Solubility (3 hours),[8],2200 µg/mL
same,Behavior in DVS: Δm (20-80% RH),[1],"fumarate, Δm~0.7%"
same,maximum water content (saturation) at about 95% RH,[1]; DVS,approximately 5.8%
same,water content change between 20% and 80% RH,[1]; DVS,about 0.5%
"CC#CC(=O)N1CCC[C@H]1c1nc(-c2ccc(C(=O)Nc3ccccn3)cc2)c2c(N)nccn12.O=C(O)/C=C/C(=O)O [Fumarate, (S)-4-(8-amino-3-(1-(but-2-ynoyl)pyrrolidin-2-yl)imidazo[1,5-α]pyrazin-1-yl)-N-(pyridin-2-yl)benzamide fumarate]",Bulk density,[2],0.45 g/mL
same,Tapped density,[2],0.57 g/mL
same,Solubility (mg/mL) after 24 hours equilibration,[7],2.1 mg/mL
same,Solubility (3 hours),[8],~1800 µg/mL
same,Behavior in DVS: Δm (20-80% RH),[1],~0.8% (20-80% RH)
same,maximum water content (saturation) at about 95% RH,[1]; DVS,approximately 6%
same,water content change between 20% and 80% RH,[1]; DVS,about 0.8%

# Reference: patent US20220177476A1, “Crystal Forms of (S)-4-(8-amino-3-(1-(but-2-ynoyl)-pyrrolidin-2-yl)imidazo[1,5-a]pyrazin-1-yl)-n-(pyridin-2-yl)benzamide” (Acerta Pharma B.V., priority 2015, published 2022)
